Laboratory results published in PubChem BioAssay AID1845204 (Molecular Pharmacology Branch, DTP, NCI, 2023).
pIC50: −log10 of the molar value.

Test system: HSSY-II tumor spheroid viability
Test: Anticancer human tumor HSSY-II cell line growth inhibition;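 note: spheroids exposed to compounds for seven days before reading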;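 for viability, T/C: percent of DMSO vehicle control viability so 100% = untreated level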
Settings: spheroids with HUVEC and MSC; for pIC50: curve of first compound; for viability, T/C: stronger effect = lower value
Excerpt: Multicellular complex tumor spheroid response to DNA repair inhibitors in combination with DNA-damaging drugs
This study explores the anticancer activities of DNA-damaging drugs and inhibitors of DNA damage repair, both as single agents and in combinations. Complex tumor spheroids comprised of malignant cells, endothelial cells and mesenchymal stem cells served as an in vitro model for human solid tumors. This model system incorporates physiologically relevant features and patient-derived or established malignant cell lines with clinically relevant genetic alterations from many tumor types. Twenty-six patient-derived or established malignant cell lines were evaluated representing sarcoma, melanoma, small cell lung cancer (SCLC), non-small cell lung cancer (NSCLC), as well as bladder, ovarian and pancreatic cancers. The concentration ranges selected for each drug and investigational agent were based upon clinically achievable concentrations if the clinical Cmax of the agent was known.
Compounds. The drugs and compounds olaparib (NSC753686), talazoparib (NSC767125), berzosertib (NSC777718), elimusertib (NSC800525), nedisertib (NSC802822), VX-984 (NSC792969), AZD-1390 (NSC803789), temozolomide (NSC362856), topotecan (NSC609699), trabectedin (NSC813783), staurosporine (NSC755774), and gemcitabine (NSC613327) were obtained from the National Cancer Institute (NCI) Developmental Therapeutics Program Chemical Repository. The FDA-approved anticancer drug set is available from the Developmental Therapeutics Program at https://dtp.cancer.gov/organization/dscb/obtaining/available_plates.htm. […] The stock solutions were prepared in dimethyl sulfoxide (DMSO, Sigma-Aldrich, St. Louis, MO, cat. D2650) at 400-fold the tested concentration and stored at -70 degrees C. Prior to their use, the stock solutions were diluted in fresh medium and the final DMSO concentration in the assay was 0.25% (v/v). All drugs and investigational agents were tested over a range starting from a high concentration at or near the clinical Cmax and decreasing in half-log increments. If the clinical Cmax for an agent had not been determined, the highest concentration tested was 10 microM.
Cell Lines. The patient-derived cancer cell (PDC) lines: 156681-154-R-J1-PDC, 283228-195-R-J1-PDC, 287954-098-R-J1-PDC, 292921-168-R-J2-PDC, 349418-098-R-PDC, 425362-245-T-J1-PDC, 556581-035-R-J1-PDC, and BL0293-F563-PDC were received from the NCI Patient-Derived Models Repository (PDMR, https://pdmr.cancer.gov). The established cell lines HS-SY-2 (RRID:CVCL_8719), MPNST, and SYO-1 (RRID:CVCL_7146) were obtained from the Sloan Kettering Institute. The alveolar soft parts sarcoma cell line ASPS-1 (RRID:CVCL_S738) was established at the NCI and grown from internal seed stocks. The following established cell lines were purchased from the American Type Culture Collection (ATCC, Manassas, VA): G-401 (ATCC, cat. CRL-1441, RRID:CVCL_0270), SW982 (ATCC, cat. HTB-93, RRID:CVCL_1734), VA-ES-BJ (ATCC, cat. CRL-2138, RRID:CVCL_1785), NCI-H719 (ATCC, cat. CRL-5837, RRID:CVCL_1582), NCI-H196 (ATCC, cat. CRL-5823, RRID:CVCL_1509), NCI-H841 (ATCC, cat. CRL-5845, RRID:CVCL_1595), NCI-H1618 (ATCC, cat. CRL-5879, RRID:CVCL_1480), NCI-H1876 (ATCC, cat. CRL-5902, RRID:CVCL_1503), DMS 114 (ATCC, cat. CRL-2066; RRID:CVCL_1174), NCI-H211 (ATCC, cat. CRL-5824; RRID:CVCL_1529), and SW 1271 (ATCC, cat. CRL-2177, RRID:CVCL_1716). The small cell lung cancer cell line COR-L88 was purchased from Sigma-Aldrich (cat. 92031917-1VL, RRID:CVCL_1141). The non-small cell lung cancer cell lines NCI-H226 (RRID:CVCL_1544) and NCI-H322M (RRID:CVCL_1557) were established at the NCI and grown from internal seed stocks. Pooled donor human umbilical vein endothelial cells (HUVEC, Lonza, cat. CC-2519) and human mesenchymal stem cells (hMSC, Lonza, cat. PT-2501) were purchased from Lonza (Walkersville, MD).
Cell Culture. All cells were maintained in an incubator at 37 degrees C and 5% CO2 with 95% humidity. […]

In the case of `O=C(c1cc(Cc2n[nH]c(=O)c3ccccc23)ccc1F)N1CCN(C(=O)C2CC2)CC1` + COc1cc2c(cc1O)CCNC21CSC2c3c(OC(C)=O)c(C)c4c(c3C(COC1=O)N1C(O)C3Cc5cc(C)c(OC)c(O)c5C(C21)N3C)OCO4, the pIC50 (second compound 30 pM) was 5.52, the pIC50 (second compound 94.9 pM) was 6.06 and the pIC50 (second compound 0.0003 µM) was > 7.02. For the same compound, the pIC50 (second compound 0.000949 µM) was > 7.02, the pIC50 (second compound 0.003 µM) was > 7.02 and the viability, T/C (second compound 30 pM, first compound 0.0949 µM) was 91.1%. It also gave a viability, T/C (second compound 30 pM, first compound 0.3 µM) of 85.6%, a viability, T/C (second compound 30 pM, first compound 0.949 µM) of 81.6% and a viability, T/C (second compound 30 pM, first compound 3 µM) of 50.9%. The viability, T/C (second compound 30 pM, first compound 9.49 µM) was 12.3%, the viability, T/C (second compound 30 pM, first compound 30 µM) was 11.1% and the viability, T/C (second compound 94.9 pM, first compound 0.0949 µM) was 73%. It also gave a viability, T/C (second compound 94.9 pM, first compound 0.3 µM) of 65.4%, a viability, T/C (second compound 94.9 pM, first compound 0.949 µM) of 49.7% and a viability, T/C (second compound 94.9 pM, first compound 3 µM) of 20.2%. The viability, T/C (second compound 94.9 pM, first compound 9.49 µM) was 9.72%, the viability, T/C (second compound 94.9 pM, first compound 30 µM) was 8.42% and the viability, T/C (second compound 0.0003 µM, first compound 0.0949 µM) was 11.3%. For the same compound, the viability, T/C (second compound 0.0003 µM, first compound 0.3 µM) was 10.6%, the viability, T/C (second compound 0.0003 µM, first compound 0.949 µM) was 8.99% and the viability, T/C (second compound 0.0003 µM, first compound 3 µM) was 8.1%. It also gave a viability, T/C (second compound 0.0003 µM, first compound 9.49 µM) of 7.62%, a viability, T/C (second compound 0.0003 µM, first compound 30 µM) of 5.94% and a viability, T/C (second compound 0.000949 µM, first compound 0.0949 µM) of 2.49%. The viability, T/C (second compound 0.000949 µM, first compound 0.3 µM) was 1.82%, the viability, T/C (second compound 0.000949 µM, first compound 0.949 µM) was 2.22% and the viability, T/C (second compound 0.000949 µM, first compound 3 µM) was 1.13%. The viability, T/C (second compound 0.000949 µM, first compound 9.49 µM) was 0.5%, the viability, T/C (second compound 0.000949 µM, first compound 30 µM) was 0.21% and the viability, T/C (second compound 0.003 µM, first compound 0.0949 µM) was 0.29%. It also gave a viability, T/C (second compound 0.003 µM, first compound 0.3 µM) of 0.34%, a viability, T/C (second compound 0.003 µM, first compound 0.949 µM) of 0.26% and a viability, T/C (second compound 0.003 µM, first compound 3 µM) of 0.22%. For the same compound, the viability, T/C (second compound 0.003 µM, first compound 9.49 µM) was 0.24% and the viability, T/C (second compound 0.003 µM, first compound 30 µM) was 0.36%.
